Assay results published in US8318954B2, “Cleavable carnitine compound” (Nou Life Sciences, Inc., priority 2006, dated 2012).
Values belong to the compound of their own block, whether it stands above or below them.

Key:
Assay type in all cases: in vivo
[1] = test system: C. elegans; test: Thermal avoidance (TAV) single intensity testing (6% laser intensity)
Experimental: (§1) One 24 well microtiter plate was set up and incubated overnight on the shaker at 20° C. Each well on the plate was set up with 600 L3/L4-stage N2 animals in NGM with a 1:20 dilution of concentrated HB101 E. coli (food source) in a volume of 300 μl. Before the animal/HB101 solution was added, test compounds were pipetted into wells. 3 μl each for the DMSO controls and LA dilutions were added to each well (1:100 dilutions). Controls and LA dilutions were done in triplicate (total of 9 wells).
6% Response tests—setup: All 9 wells from the 24 well plate were used for 6% testing and the entire well contents (600 animals) were used for each test. Prior to being placed on the agar plate for TAV testing each sample was processed as described for ‘Dose Responses’.
Dose Responses—general notes on analysis: Analysis similar as described in ‘Dose Responses’. In addition, ‘Response ratios’ as well as ‘A Speed responses’ both give measures of how much individual animals changed speed in response to the stimulus (additional information available upon request).
as §1, with “wells. 6” for “wells. 3”, “the water” for “the DMSO”, “and compound” for “and LA”, “well (1:50” for “well (1:100”, “of 15” for “of 9”
6% Response tests—setup: All 15 wells from the 24 well plate were used for 6% testing) and the entire well contents (600 animals) were used for each test. Prior to being placed on the agar plate for TAV testing each sample was processed as described for ‘Dose Responses’.
as §1, with “LC” for “LA”

[2] = test system: C. elegans; test: Visual scoring of C. elegans after overnight incubation with compound in 24 well plate; conditions: for visual scoring of well clearance: L3/L4-stage N2 animals
Experimental: (§2) One 24 well microtiter plate was set up and incubated overnight on the shaker at 20 C. Each well on the plate was set up with 600 L3/L4-stage N2 animals in NGM with a 1:20 dilution of concentrated HB101 E. coli (food source) in a volume of 300 μl. Before the animal/HB101 solution was added, test compounds were pipetted into wells. For water controls and compound stocks/dilutions in water (DHLA, NAC) 6 μl was added to each well (1:50 dilutions). For DMSO controls and compound stocks/dilutions in DMSO (LA) 3 μl was added to each well (1:100 dilutions). No OD620 measurements were taken but the animals were visually scored after 19 h incubation.
as §2, with “at 20°” for “at 20”, “For” for “For water controls and compound stocks/dilutions in water (DHLA, NAC) 6 μl was added to each well (1:50 dilutions). For”, “DMSO (LC)” for “DMSO (LA)”, “h incubation).” for “h incubation.”
as §2, with “at 20°” for “at 20”, “For” for “For water controls and compound stocks/dilutions in water (DHLA, NAC) 6 μl was added to each well (1:50 dilutions). For”, “DMSO (LC)” for “DMSO (LA)”, “after 22” for “after 19”, “h incubation).” for “h incubation.”

[3] = test system: C. elegans; test: Thermal avoidance (TAV) 3 step dose response testing; conditions: for effects indicating increased sensory sensitivity: 0%, 6%, 12% laser intensity
Text: The present invention includes a series of compounds that may be useful for increasing sensory neuron function in certain human neuropathological conditions. C. elegans contains a number of sensory neurons which are responsible for detecting a variety of external stimuli. One such stimulus (heat) can be detected and quantified in C. elegans by the use of thermal avoidance (TAV) technology available through NemaRx. The goal of this experiment was to provide an initial characterization of the compounds via TAV. Specifically, it was asked whether any of these compounds can lead to an increase in the thermal stimulus-induced behavioral response measured by TAV. N2 strain C. elegans animals were used for this project, which have ‘normal’, i.e. wildtype, sensory neuron function. Four compounds were received by NemaRx for TAV testing. These compounds were:
as §2
Dose Responses—setup: All of the wells from the 24 well plate were used for dose response testing and the entire well contents (600 animals) were used for each test. Prior to being placed on the agar plate for TAV testing each sample was processed as follows: • sample were transferred to glass tube containing 7 ml PBS • animals were allowed to settle for 5 minutes before most of the supernatant was removed (approx. 0.5 ml remaining in tube) • 7 ml PBS was then added, mixed and animals were allowed to settle for 5 minutes most of the supernatant was then removed • animals were removed and transferred to TAV testing plate (NRx Application pattern A) • plate was allowed to dry for 10 minutes (plate cover removed) and TAV testing was initiated. Per plate settings for the dose response experiments were as follows:
Dose Responses—general notes on analysis: A response of the animals to a thermal stimulus (laser) which is applied to the head region can be detected both by a change in the direction of movement, as well as by a change in speed occurring within the test interval where the stimulus is applied. • direction of movement. […] Animals that show a strong change in the direction of movement, i.e. reversals, are classified as LR5 responders. […] LR5 responders show a thermal intensity-dependent increase in the speed of movement (starting off with less than <prelaser speed at low intensities up to > pre-laser speed at high intensities)
The dose response experiments for the current project were carried out with 0% (background control), 6% and 12% settings of laser intensity. In practice, 6% is on the edge of laser intensity required to detect an increase in the number of LR5 responders. As such, 6% should be a useful intensity-setting to detect compound-induced increased sensitivity in the animals. The 12% setting was chosen because this intensity typically gives a robust increase in the number of LR5 responders.
Total Responder speeds, ‘LR1 Responder speeds’ and ‘LR5 Responder speeds’ are shown as normalized speeds to allow better comparison between samples. For normalization purposes the average pre-laser speed is set at 1.0 and responder speeds are calculated relative to this value.
One 24 well microtiter plate was set up and incubated overnight on the shaker at 20° C. Each well on the plate was set up with 600 L3/L4-stage N2 animals in NGM with a 1:20 dilution of concentrated HB101 E. coli (food source) in a volume of 300 μl. […]

[4] = even at highest concentration 2 mM (LC)

- visual scoring of well clearance ([2]; LA1, 10 mM final concentration in well, 19 h incubation): most bacteria remaining
- visual scoring of well clearance ([2]; LA2, 5 mM final concentration in well, 19 h incubation): some bacteria remaining
Compound: O=C(O)CCCCC1CCSS1 (centres unmarked) [LA, Lipoic acid]
- effects indicating increased sensory sensitivity ([1]; 2 mM or 1 mM): No effects detected
- effects indicating increased sensory sensitivity ([3]; even at highest non-toxic concentration of 2 mM): No obvious effects detected
- speed of LR1 responders ([3]; LA3 dilution): relatively low
- percentage of LR5 responders ([3]; dilutions LA4, LA5 and LA6, similar to the last DMSO control): relatively high
- toxicity evident from 'Frames viewed' and 'Average Speeds' ([3]; two highest LA concentrations (LA1, LA2)): toxicity is observed

Compound: Acetyl-L-Carnitine-Lipoic acid conjugate [LC Conjugate]
- effects indicating increased sensory sensitivity [1, 4]: No obvious effects detected
- visual scoring (toxicity) ([2]; LC, 22 h incubation): no toxicity observed
- visual scoring (toxicity) ([2]; all LC dilutions LC1-LC6 (up to 2 mM), 19 h incubation): no toxicity observed
- effects indicating increased sensory sensitivity [3, 4]: No obvious effects detected
